Experimental findings from patent US7846924B2, “Cyanopyrroles” (Wyeth LLC, priority 1999, dated 2010) are described below.

By melting point is commonly meant the temperature of the solid-liquid transition.

Compound `CC(C)(C)OC(=O)Cn1c(C#N)ccc1-c1ccc2c(c1)C(C)(C)OC(=O)N2` [Example 8, tert-butyl[2-cyano-5-(4,4-dimethyl-2-oxo-1,4-dihydro-2H-3,1-benzoxazin-6-yl)-1H-pyrrol-1-yl]acetate] gave a melting point of 188 to 190 °C. Take `CC1(C)OC(=O)Nc2ccc(-c3ccc(C#N)n3CC(=O)O)cc21` [Example 9, [2-Cyano-5-(4,4-dimethyl-2-oxo-1,4-dihydro-2H-3,1-benzoxazin-6-yl)-1H-pyrrol-1yl]acetic acid]: the melting point is 207 to 209 °C.

`C#CCn1c(C#N)ccc1-c1ccc2c(c1)C(C)(C)OC(=O)N2` [Example 7, 5-(4,4-dimethyl-2-oxo-1,4-Dihydro-2H-3,1-benzoxazin-6-yl)-1-prop-2-ynyl-1H-pyrrole-2-carbonitrile] registered a melting point of 222 to 224 °C. To `CC1(C)OC(=O)Nc2ccc(-c3ccc(C#N)[nH]3)cc21` [Example 1, 5-(4,4-Dimethyl-2-oxo-1,4-dihydro-2H-benzo[d][1,3]oxazin-6-yl)-1H-pyrrole-2-carbonitrile] belongs 241 to 242 °C; to `CCCCCn1c(C#N)ccc1-c1ccc2c(c1)C(C)(C)OC(=O)N2` [Example 11, 5-(4,4-Dimethyl-2-oxo-1,4-dihydro-2H-3,1-benzoxazine-6-yl)-1-pentyl-1H-pyrrole-2-carbonitrile], 128 to 131 °C. Under `CCn1c(C#N)ccc1-c1ccc2c(c1)C(C)(C)OC(=O)N2` [Example 6, 5-(4,4-Dimethyl-2-oxo-1,4-dihydro-2H-3,1-benzoxazin-6-yl)-1-ethyl-1H-pyrrole-2-carbonitrile] stands 200 to 202 °C; under `CCOc1cc(CCNC(=O)Cn2c(C#N)ccc2-c2ccc3c(c2)C(C)(C)OC(=O)N3)ccc1OC` [Example 10, 2-[2-cyano-5-(4,4-dimethyl-2-oxo-1,4-dihydro-2H-3,1-benzoxazin-6-yl)-1H-pyrrol-1-yl]-N-[2-(3-ethoxy-4-methoxyphenyl)ethyl]acetamide], 160 to 162 °C; under `CN1C(=O)OC(C)(C)c2cc(-c3ccc(C#N)[nH]3)ccc21` [Example 12, 5-(1,4,4-trimethyl-2-oxo-1,4-dihydro-2H-3,1-benzoxazin-6-yl)-1H-pyrrole-2-carbonitril], 256 to 257 °C (dec.).

As to `CC1(C)C(=O)Nc2ccc(C3(C#N)C=CC=N3)cc21` (stereo not drawn) [Example 3, 2-(3,3-Dimethyl-2-oxo-2,3-dihydro-1H-indol-5-yl)-2-cyanopyrrole], the melting point lay in the range of 255.9 to 257.9 °C.
